Results as given in patent US20200390755A1, “COMPOUND FOR TREATING NERVOUS SYSTEM DISEASES AND USE THEREOF” (SHAANXI MICOT TECHNOLOGY CO., LTD., priority 2018, published 2020).

Tests used:
WT mice [1] = assay: Slope balance beam experiment, WT mice; format: in vivo, mouse; details: 5 mg/kg/d intragastric
Method: (§1) 7-week-old N171-82Q HD male mice were paired with female B6C3F1/J hybrid mice to obtain newborn mice. From 21 days of age, male mice were housed in separate cages. 0.5 cm of mouse tail tissue was removed to extract DNA to determine the genotype of the mouse, such that N171-82Q HD mice and WT mice needed for the experiment were obtained. The mice were randomly divided into WT Vehicle group (normal mice), WT test compound group (administration group of normal mice, 5 mg/kg/d, n=10), HD Vehicle group (blank group of HD mice, n=15), HD test compound group (administration groups 1-5 of HD mice, 5 mg/kg/d, n=10). The test compound was suspended in 1% CMC-Na solution and administered by intragastric administration until the end of the study. The weights of the mice were measured every week. Behavioral tests were performed at 12 weeks, 18 weeks, and 24 weeks of age to investigate motor function. At 20 weeks, 3 samples of tissue from each group were used for western blotting and immunohistochemistry. At 24 weeks, MRI scans were performed. At the end of the study, the effect of the test compound on the mortality of mice was evaluated. The software Sigmaplot 13.0 was used for statistical analysis of the data, and the data of each group was expressed as mean standard error (x±SEM). Behavioral test results were analyzed using two-way (genotype and processing factor) ANOVA and post-ho tests, the comparison and statistics of weight data were performed using two-way (genotype and age) ANOVA of repeated measures, and mortality was counted using Kaplan-Meier method. Other measurement data were analyzed by one-way ANOVA. P<0.05 was considered statistically significant. The motor function of mice was evaluated by the rotarod experiment and three types of balance beam experiments. The shorter the time for mouse to cross the balance beam, and the longer the time to drop, the stronger the coordination ability of the mouse. […] If the time for crossing the beams was greater than 60 seconds, it was recorded as 60 seconds.

WT mice [2] = assay: Rotarod experiment, WT mice; format: in vivo, mouse; details: 5 mg/kg/d intragastric
Method: as §1, with “The time” for “If”, “mouse remained on” for “time for crossing”, “rod, i.e., drop latent period,” for “beams was greater than 60 seconds, it”, “to indicate its motor coordination ability. […]” for “as 60 seconds.”

**Q.** For `O=c1cc(-c2ccc(N3CCCCC3)cc2)oc2c(O)c(O)ccc12` [Example 1, 7,8-dihydroxy-2-(4-(piperidin-1-yl)phenyl)-4H-chromen-4-one], which “Time for crossing the beams, slope balance beam” value (“Time … slope balance beam” for short) (WT mice [1]; 12 w) is on record?
**A.** The value was 18.82 ± 28.33 s.

**Q.** What about the “Time … slope balance beam” value (WT mice [1]; 18 w) of the same compound?
**A.** Its value is 12.45 ± 6.23 s.

**Q.** What about the “Time … slope balance beam” value (WT mice [1]; 24 w) of the same compound?
**A.** The value was 15.50 ± 6.11 s.

**Q.** What about the “Time to drop (drop latent period), rotarod” value (from here on “Time to drop”) (WT mice [2]; 12 w) of the same compound?
**A.** The value was 98.33 ± 30.03 s.

**Q.** And the “Time to drop” value (WT mice [2]; 18 w)?
**A.** The value was 78.97 ± 23.84 s.

**Q.** What about the “Time to drop” value (WT mice [2]; 24 w) of the same compound?
**A.** The value was 73.72 ± 18.25 s.
